Key:
[1] = biological target: T1, ZagA (YciC) (Bacillus subtilis, UniProt P94400); test: inhibition of ZTP hydrolysis, malachite green assay; format: biochemical; settings: substrate ZTP
[2] = biological target: T1, ZagA (YciC); test: inhibition of GTP hydrolysis, malachite green assay; format: biochemical; settings: substrate GTP

T1 sequence (P94400 whole entry): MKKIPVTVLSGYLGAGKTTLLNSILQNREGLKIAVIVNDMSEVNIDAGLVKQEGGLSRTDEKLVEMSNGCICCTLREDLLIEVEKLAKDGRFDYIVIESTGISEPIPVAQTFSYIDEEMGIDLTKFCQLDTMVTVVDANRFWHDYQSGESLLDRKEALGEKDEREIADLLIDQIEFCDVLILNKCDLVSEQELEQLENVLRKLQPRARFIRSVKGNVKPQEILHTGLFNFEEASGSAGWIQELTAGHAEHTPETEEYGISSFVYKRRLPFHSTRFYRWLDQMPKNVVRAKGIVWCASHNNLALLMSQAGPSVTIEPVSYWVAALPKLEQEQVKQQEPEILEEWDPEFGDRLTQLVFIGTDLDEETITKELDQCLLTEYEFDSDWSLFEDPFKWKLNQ

Compound	inhibition of ZTPase activity [1]	inhibition of GTPase activity [2]
Nc1nc2c(ncn2[C@@H]2O[C@H](COP(=O)(O)OP(=O)(O)NP(=O)(O)O)[C@@H](O)[C@H]2O)c(=O)[nH]1 [GDP-NP]	GDP-NP, a non-hydrolyzable analog of GTP, inhibited ZTP hydrolysis	–
NC(=O)c1ncn([C@@H]2O[C@H](COP(=O)(O)O)[C@@H](O)[C@H]2O)c1N [ZMP]	–	Conversely, ZMP inhibited GTP hydrolysis (Fig 4D)
